# Experimental data reported in patent publication US20190262371A1, “METHODS AND COMPOSITION FOR THE TREATMENT OF RNA VIRAL INFECTIONS” (The Regents of the University of California, priority 2016, published 2019).
# Tested on: ZIKV (MR766)
# Test: Inhibitor activity analysis: effect of methyltransferase inhibitors on ZIKV replication in a microglial cell line (supernatant one-step qRT-PCR)
# Assay type: cell-based, ZIKA virus
# Settings: assay not given, presumably ZIKV inhibition, 10 μM, MOI 1, 24 h / 48 h, normalized to DMSO
# Experimental: FIG. 7. Microglial cell-line was plated 1×10^6 cells per well in 24 well plate and cultured for 24 h. Cell were then treated in triplicate with series of methyltransferase inhibitors ([…]) for one hour followed by infection with ZIKV (MR766, MOI: 1) and changed the fresh medium after 2 hrs of ZIKV infection and re-added the drugs. After 24 h of the infection, we collected the supernatant and did one-step qRT-PCR. Fold inhibition of ZIKV infection was normalized from DMSO control.
# FIG. 8. Microglial cell-line was plated 1×10^6 cells per well in 24 well plate and cultured for 24 h. […]
# Effects of methyltransferase inhibitors on ZIKV replication was monitored using previously published methods (Dang, J., Tiwari, S. K., Lichinchi, G., Qin, Y., Patil, V. S., Eroshkin, A. M., and Rana, T. M. (2016); Zika Virus Depletes Neural Progenitors in Human Cerebral Organoids through Activation of the Innate Immune Receptor TLR3. Cell Stem Cell 19, 258-265; Lichinchi, G., Zhao, B. S., Wu, Y., Lu, Z., Qin, Y., He, C., and Rana, T. M. (2016). Dynamics of Human and Viral RNA Methylation during Zika Virus Infection. Cell Host Microbe 20, 666-673; Tiwari, S. K., Dang, J., Qin, Y., Lichinchi, G., Bansal, V., and Rana, T. M. (2017), which are incorporated herein in their entirety for all purposes). […]
compound,measurement,value
Nc1ncnc2c1ncn2C1OC(CNCCn2c3ccccc3c3ccccc32)C(O)C1O (stereo not shown) [TR-H-08],activity (found to be an active compound),active
